One experiment deals with HDAC2 (Homo sapiens, UniProt Q92769). As to the kind of experiment: Inhibition of purified HDAC2, Boc-Lys(Ac)-AMC substrate. As to conditions: 1 h 37 °C. The experiment is classed as biochemical. Also on record: purchased Cayman Chemical.
In the next experiment the target is T1, HDAC6 (Homo sapiens, UniProt Q9UBN7).
T1 sequence (Q9UBN7 1-1215): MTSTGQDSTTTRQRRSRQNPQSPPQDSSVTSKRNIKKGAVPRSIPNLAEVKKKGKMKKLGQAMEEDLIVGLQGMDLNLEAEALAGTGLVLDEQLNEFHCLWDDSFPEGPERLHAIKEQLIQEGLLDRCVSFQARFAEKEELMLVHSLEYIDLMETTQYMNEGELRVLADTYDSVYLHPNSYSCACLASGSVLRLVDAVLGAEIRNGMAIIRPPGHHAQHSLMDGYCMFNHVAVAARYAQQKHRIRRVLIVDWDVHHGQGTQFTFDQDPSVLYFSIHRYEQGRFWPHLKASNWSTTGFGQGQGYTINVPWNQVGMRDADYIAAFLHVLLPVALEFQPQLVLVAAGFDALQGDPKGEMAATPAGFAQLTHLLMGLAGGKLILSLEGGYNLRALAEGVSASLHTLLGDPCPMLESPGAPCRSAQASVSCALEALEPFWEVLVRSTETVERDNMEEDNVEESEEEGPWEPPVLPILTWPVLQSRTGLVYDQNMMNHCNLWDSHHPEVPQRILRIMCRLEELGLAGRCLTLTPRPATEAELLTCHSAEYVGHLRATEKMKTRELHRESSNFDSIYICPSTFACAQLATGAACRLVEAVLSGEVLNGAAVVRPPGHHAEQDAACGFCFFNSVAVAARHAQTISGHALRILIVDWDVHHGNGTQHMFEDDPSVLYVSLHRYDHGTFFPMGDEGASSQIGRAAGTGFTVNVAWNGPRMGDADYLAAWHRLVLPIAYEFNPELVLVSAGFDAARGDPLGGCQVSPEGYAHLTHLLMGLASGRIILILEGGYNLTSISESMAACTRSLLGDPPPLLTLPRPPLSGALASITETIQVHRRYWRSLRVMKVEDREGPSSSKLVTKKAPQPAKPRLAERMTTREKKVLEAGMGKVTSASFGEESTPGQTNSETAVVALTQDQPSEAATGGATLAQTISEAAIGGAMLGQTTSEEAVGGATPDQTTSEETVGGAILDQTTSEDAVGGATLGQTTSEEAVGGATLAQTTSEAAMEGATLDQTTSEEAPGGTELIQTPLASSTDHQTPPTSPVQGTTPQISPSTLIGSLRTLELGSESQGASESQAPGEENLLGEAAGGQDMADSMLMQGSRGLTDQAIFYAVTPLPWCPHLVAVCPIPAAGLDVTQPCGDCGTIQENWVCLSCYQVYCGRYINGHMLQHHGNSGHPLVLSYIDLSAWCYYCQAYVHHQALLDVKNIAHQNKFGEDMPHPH
The experiment in a line: Inhibition of purified HDAC6, Boc-Lys(Ac)-AMC substrate. The arrangement: purchased Cayman Chemical. The note with it: 1 h 37 °C. In kind it is biochemical.

This is an account of results in PMC12517324, “Hyperagonism of a Vitamin D Receptor Agonist/Histone Deacetylase Inhibitor Hybrid Molecule” (Journal of Medicinal Chemistry, 2025).

SMILES strings stand for the structures.

Sequence of HDAC2 (Q92769 whole entry): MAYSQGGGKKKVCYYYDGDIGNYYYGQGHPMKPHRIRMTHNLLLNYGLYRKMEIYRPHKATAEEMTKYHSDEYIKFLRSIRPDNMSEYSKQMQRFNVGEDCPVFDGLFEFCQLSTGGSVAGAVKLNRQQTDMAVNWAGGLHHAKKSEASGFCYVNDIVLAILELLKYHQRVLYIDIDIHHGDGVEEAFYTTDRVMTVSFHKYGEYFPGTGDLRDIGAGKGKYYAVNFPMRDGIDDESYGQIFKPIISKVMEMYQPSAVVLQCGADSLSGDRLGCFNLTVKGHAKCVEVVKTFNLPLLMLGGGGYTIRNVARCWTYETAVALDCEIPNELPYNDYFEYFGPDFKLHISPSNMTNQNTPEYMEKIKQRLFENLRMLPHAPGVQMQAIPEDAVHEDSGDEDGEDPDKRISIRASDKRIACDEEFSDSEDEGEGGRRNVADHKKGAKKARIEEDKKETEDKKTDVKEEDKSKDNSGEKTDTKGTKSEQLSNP

Take `CCC(CC)(c1ccc(OCCCCCC(=O)NO)cc1)c1ccc(OCC(O)C(C)(C)C)c(C)n1` (centres unmarked) [AM-193]: the results for the IC50 on HDAC2 and at HDAC6 were 4.18 µM and 3.09 µM, respectively.
